Measured values as given in ChEMBL document CHEMBL6071132, “Synthetic approaches and application of representative clinically approved fluorine-enriched anti-cancer medications” (Eur J Med Chem, 2024).
Where a name gives a salt, the structure may show the parent alone.

Assays:
KARPAS-299 = assay: cells; conditions: Homo sapiens, KARPAS-299, 72 h
Description: Antiproliferative activity against human KARPAS-299 cells assessed as inhibition of cell growth incubated for 72 hrs by celltiter-glo assay

[1] = target: ALK tyrosine kinase receptor (Homo sapiens, UniProt Q9UM73); assay: Inhibition of ALK (unknown origin)
[2] = target: Phosphatidylinositol 4,5-bisphosphate 3-kinase catalytic subunit gamma isoform (Homo sapiens, UniProt P48736); assay: Inhibition of PI3Kgamma (unknown origin)
Chain of Phosphatidylinositol 4,5-bisphosphate 3-kinase catalytic subunit gamma isoform (P48736 whole entry, canonical isoform): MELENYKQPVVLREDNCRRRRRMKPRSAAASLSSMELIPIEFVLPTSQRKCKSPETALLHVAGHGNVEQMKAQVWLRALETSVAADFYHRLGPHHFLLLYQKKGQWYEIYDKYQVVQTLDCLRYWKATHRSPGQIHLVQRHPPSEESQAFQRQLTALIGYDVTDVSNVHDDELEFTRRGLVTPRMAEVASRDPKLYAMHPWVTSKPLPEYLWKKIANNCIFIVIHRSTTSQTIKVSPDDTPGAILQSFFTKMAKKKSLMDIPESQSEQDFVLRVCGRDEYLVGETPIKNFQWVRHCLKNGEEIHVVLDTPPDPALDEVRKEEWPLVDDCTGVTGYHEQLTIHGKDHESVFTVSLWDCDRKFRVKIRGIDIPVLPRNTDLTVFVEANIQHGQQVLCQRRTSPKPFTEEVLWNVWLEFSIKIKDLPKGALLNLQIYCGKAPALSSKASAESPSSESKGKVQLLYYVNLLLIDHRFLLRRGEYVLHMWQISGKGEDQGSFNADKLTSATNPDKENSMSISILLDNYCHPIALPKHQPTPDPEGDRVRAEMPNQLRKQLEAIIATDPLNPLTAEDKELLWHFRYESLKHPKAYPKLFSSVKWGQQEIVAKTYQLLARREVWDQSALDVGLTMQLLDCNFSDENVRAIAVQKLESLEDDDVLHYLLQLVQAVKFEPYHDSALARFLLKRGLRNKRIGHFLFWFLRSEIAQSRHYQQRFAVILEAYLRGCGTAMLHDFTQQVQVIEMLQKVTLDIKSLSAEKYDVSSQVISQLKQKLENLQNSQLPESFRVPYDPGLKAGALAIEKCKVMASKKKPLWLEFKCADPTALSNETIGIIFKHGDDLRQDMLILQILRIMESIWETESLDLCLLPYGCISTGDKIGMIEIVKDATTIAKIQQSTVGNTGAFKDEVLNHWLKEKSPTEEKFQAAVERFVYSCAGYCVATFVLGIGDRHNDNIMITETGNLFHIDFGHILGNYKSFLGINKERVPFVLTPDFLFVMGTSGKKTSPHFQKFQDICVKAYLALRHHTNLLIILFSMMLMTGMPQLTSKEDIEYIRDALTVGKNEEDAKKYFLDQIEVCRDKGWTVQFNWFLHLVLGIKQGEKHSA

RPMI-8226 = assay: Anticancer activity against human RPMI-8226 cells assessed as reduction in cell growth; type: functional, cell-based
U-266 = assay: Antiproliferative activity against human U266B1 cells assessed as reduction in cell viability; type: functional, cell-based
[3] = Inhibition of BTK C481T mutant (unknown origin); design: species or system Homo sapiens
[4] = target: Tyrosine-protein kinase BTK (Homo sapiens, UniProt Q06187)
Chain of Tyrosine-protein kinase BTK (Q06187 whole entry): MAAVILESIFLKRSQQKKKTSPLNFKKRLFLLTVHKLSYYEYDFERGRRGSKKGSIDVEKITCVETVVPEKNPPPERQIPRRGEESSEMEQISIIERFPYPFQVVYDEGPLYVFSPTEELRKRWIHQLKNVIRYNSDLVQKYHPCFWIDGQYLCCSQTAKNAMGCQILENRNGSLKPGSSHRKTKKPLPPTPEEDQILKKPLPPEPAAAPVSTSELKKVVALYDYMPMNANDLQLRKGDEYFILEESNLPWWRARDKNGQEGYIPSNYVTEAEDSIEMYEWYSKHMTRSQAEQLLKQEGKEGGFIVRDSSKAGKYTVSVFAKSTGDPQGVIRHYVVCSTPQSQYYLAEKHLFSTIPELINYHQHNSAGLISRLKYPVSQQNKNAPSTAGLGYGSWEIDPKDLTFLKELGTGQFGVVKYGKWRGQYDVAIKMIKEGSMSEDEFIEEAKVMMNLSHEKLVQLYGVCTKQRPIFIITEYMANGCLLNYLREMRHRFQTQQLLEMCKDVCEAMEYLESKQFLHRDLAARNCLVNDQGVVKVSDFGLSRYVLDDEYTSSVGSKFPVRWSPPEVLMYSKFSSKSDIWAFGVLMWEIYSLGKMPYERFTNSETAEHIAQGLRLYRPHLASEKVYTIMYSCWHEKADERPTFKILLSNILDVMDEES
Description: Inhibition of wild type BTK in human CLL cells assessed as

[5] = Antiproliferative activity against human ROSA KIT WT cells; type: toxicity, cell-based
[6] = Anticancer activity against human ME-1 cells; type: functional, cell-based
NCI-H358 = assay: Antiproliferative activity against human NCI-H358 cells assessed as reduction in cell viability; type: functional, cell-based
MIA PaCa-2 = assay: Antiproliferative activity against human MIA PaCa-2 cells assessed as reduction in cell viability; type: functional, cell-based

Chain of ALK tyrosine kinase receptor (Q9UM73 whole entry, canonical isoform): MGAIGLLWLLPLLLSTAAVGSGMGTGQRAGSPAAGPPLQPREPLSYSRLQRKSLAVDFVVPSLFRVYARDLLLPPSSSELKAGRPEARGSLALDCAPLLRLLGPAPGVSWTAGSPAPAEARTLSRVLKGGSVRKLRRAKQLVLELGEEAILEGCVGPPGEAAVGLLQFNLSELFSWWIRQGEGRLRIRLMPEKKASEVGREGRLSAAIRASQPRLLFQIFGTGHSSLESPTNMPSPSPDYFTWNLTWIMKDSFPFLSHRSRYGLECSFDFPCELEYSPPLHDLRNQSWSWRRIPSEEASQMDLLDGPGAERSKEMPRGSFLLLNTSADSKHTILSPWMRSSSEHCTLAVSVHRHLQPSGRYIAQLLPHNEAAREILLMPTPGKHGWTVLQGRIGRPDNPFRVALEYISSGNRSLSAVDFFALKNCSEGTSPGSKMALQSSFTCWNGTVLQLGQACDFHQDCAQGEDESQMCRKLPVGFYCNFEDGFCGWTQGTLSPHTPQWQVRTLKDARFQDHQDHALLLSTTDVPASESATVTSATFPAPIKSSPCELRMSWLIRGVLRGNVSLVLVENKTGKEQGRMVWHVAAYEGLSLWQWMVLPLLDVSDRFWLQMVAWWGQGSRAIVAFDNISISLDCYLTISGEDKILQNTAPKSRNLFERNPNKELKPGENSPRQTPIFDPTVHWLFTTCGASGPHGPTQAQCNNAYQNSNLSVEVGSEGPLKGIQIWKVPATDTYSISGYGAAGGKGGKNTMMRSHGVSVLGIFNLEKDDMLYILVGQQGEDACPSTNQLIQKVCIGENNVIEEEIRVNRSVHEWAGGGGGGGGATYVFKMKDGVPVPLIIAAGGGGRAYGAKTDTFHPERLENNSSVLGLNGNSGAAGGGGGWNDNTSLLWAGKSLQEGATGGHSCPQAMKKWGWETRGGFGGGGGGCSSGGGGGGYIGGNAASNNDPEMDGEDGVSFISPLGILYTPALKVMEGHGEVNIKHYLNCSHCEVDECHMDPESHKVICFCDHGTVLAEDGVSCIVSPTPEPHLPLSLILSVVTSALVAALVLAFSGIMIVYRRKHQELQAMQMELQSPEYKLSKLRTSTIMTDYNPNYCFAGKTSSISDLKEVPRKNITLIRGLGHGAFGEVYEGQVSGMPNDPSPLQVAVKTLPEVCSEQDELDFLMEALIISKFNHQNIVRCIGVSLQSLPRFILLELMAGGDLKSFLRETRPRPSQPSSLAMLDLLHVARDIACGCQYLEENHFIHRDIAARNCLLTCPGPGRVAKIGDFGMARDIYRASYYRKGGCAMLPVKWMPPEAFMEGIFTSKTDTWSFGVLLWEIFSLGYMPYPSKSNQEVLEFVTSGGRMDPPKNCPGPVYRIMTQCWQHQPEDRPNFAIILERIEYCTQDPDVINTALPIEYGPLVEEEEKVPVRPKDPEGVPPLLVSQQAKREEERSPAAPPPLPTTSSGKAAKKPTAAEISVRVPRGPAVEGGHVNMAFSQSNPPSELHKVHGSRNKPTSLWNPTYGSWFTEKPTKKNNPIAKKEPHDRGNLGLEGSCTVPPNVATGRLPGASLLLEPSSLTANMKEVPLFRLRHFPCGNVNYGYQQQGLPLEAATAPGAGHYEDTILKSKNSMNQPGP

## CN1CCN(c2ccc(C(=O)Nc3n[nH]c4ccc(Cc5cccc(F)c5)cc34)c(NC3CCOCC3)c2)CC1
KARPAS-299
  IC50: 10 nM

## CN1CCN(c2ccc(C(=O)Nc3n[nH]c4ccc(Cc5ccccc5)cc34)c(NC3CCOCC3)c2)CC1
KARPAS-299
  IC50: 180 nM
[1]
  IC50: 100 nM

## CCC(=O)N1CC[C@H](Nc2ncnc3c2CN(c2cnc(OC)c(C(F)(F)F)c2)CC3)C1 [LENIOLISIB]
[2]
  IC50: 2.23 nM

## CCOC(=O)[C@H](Cc1ccc(F)cc1)NC(=O)[C@@H](N)Cc1ccc(N(CCCl)CCCl)cc1 [MELPHALAN FLUFENAMIDE HYDROCHLORIDE]
RPMI-8226
  IC50: 4 nM
U-266
  IC50: 6 nM

## COc1ccc(F)cc1C(=O)NCc1ccc(-c2nn([C@@H](C)C(F)(F)F)c(N)c2C(N)=O)cc1 [PIRTOBRUTINIB]
[3]
  IC50: 7.23 nM
[4]
  IC50: 3.68 nM

## CCn1c(=O)c(-c2cc(NC(=O)Nc3ccccc3)c(F)cc2Br)cc2cnc(NC)cc21 [RIPRETINIB]
[5]
  IC50: 34 nM

## O=C(/C=C\n1cnc(-c2cc(C(F)(F)F)cc(C(F)(F)F)c2)n1)NNc1cnccn1 [SELINEXOR]
[6]
  IC50: 34 nM

## C=CC(=O)N1CCN(c2nc(=O)n(-c3c(C)ccnc3C(C)C)c3nc(-c4c(O)cccc4F)c(F)cc23)[C@@H](C)C1 [SOTORASIB]
NCI-H358
  IC50: 6 nM
MIA PaCa-2
  IC50: 9 nM
